Data published in ChEMBL document CHEMBL1201862, “PubChem BioAssay data set” (2004).
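Following 48 hours of exposure in 96-well plates, responses at five concentrations were used to interpolate endpoints linearly. At the GI50, growth is halved.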 Calls of active or inactive are those of the source. No stated cut-off is given here; in the data, active = GI50 up to about 1.1 µM and inactive = higher.

How the values were obtained:
Assay in all cases: NCI tumour cell line growth inhibition, 48 h
A498 = tested on: A498
OVCAR-8 = tested on: OVCAR-8
HCT-116 = tested on: HCT-116
MDA-MB-435 = tested on: MDA-MB-435
HT-29 = tested on: HT-29
LOX IMVI = tested on: LOX IMVI
OVCAR-3 = tested on: OVCAR-3
SK-OV-3 = tested on: SK-OV-3
HOP-92 = tested on: HOP-92
SR = tested on: SR
M14 = tested on: M14
Hs-578T = tested on: Hs-578T
UO-31 = tested on: UO-31
MDA-N = tested on: MDA-N
NCI/ADR-RES = tested on: NCI/ADR-RES
K562 = tested on: K562
CCRF-CEM = tested on: CCRF-CEM
HCT-15 = tested on: HCT-15
SK-MEL-28 = tested on: SK-MEL-28
HOP-62 = tested on: HOP-62

SMILES	GI50 (A498)	GI50 (OVCAR-8)	GI50 (HCT-116)	GI50 (MDA-MB-435)	GI50 (HT-29)	GI50 (LOX IMVI)	GI50 (OVCAR-3)	GI50 (SK-OV-3)	GI50 (HOP-92)	GI50 (SR)	GI50 (M14)	GI50 (Hs-578T)	GI50 (UO-31)	GI50 (MDA-N)	GI50 (NCI/ADR-RES)	GI50 (K562)	GI50 (CCRF-CEM)	GI50 (HCT-15) [µM]	GI50 (SK-MEL-28)	GI50 (HOP-62)
c1ccc2nc3c(nc2c1)sc1nc2ccccc2n13	26.1 µM (inactive)	> 100 µM (inactive)	> 100 µM (inactive)	> 100 µM (inactive)	> 100 µM (inactive)	> 100 µM (inactive)	> 100 µM (inactive)	> 100 µM (inactive)	57 µM (inactive)	> 100 µM (inactive)	> 100 µM (inactive)	> 100 µM (inactive)	> 100 µM (inactive)	> 100 µM (inactive)	> 100 µM (inactive)	> 100 µM (inactive)	> 100 µM (inactive)	> 100	–	–
CS(=O)(=O)c1ccc(/N=C/C=C/Nc2ccc(S(C)(=O)=O)cc2)cc1	> 100 µM (inactive)	> 100 µM (inactive)	> 100 µM (inactive)	> 100 µM (inactive)	> 100 µM (inactive)	–	> 100 µM (inactive)	> 100 µM (inactive)	> 100 µM (inactive)	> 100 µM (inactive)	> 100 µM (inactive)	> 100 µM (inactive)	> 100 µM (inactive)	> 100 µM (inactive)	> 100 µM (inactive)	> 100 µM (inactive)	> 100 µM (inactive)	> 100	> 100 µM (inactive)	> 100 µM (inactive)
COc1cc(C)c2c(=O)c3ccccc3n(C)c2c1	26.5 µM (inactive)	22.6 µM (inactive)	18.5 µM (inactive)	40.8 µM (inactive)	11.8 µM (inactive)	17.4 µM (inactive)	21.6 µM (inactive)	43.1 µM (inactive)	7.43 µM (inactive)	15.6 µM (inactive)	27.2 µM (inactive)	40.4 µM (inactive)	–	55.6 µM (inactive)	30.5 µM (inactive)	17.1 µM (inactive)	21.9 µM (inactive)	22.3	32 µM (inactive)	> 10 µM (inactive)
CC(=O)OC[C@]1(C(=O)C(O)c2ccoc2)[C@H](C)CC[C@@]23COC(=O)C2=CCC[C@@H]31 (stereo not given in full)	> 10 µM (inactive)	> 10 µM (inactive)	> 10 µM (inactive)	> 10 µM (inactive)	> 10 µM (inactive)	> 10 µM (inactive)	> 10 µM (inactive)	> 10 µM (inactive)	> 10 µM (inactive)	> 10 µM (inactive)	> 10 µM (inactive)	> 10 µM (inactive)	> 10 µM (inactive)	> 10 µM (inactive)	> 10 µM (inactive)	–	> 10 µM (inactive)	> 10	–	–
COC(=O)C12CCC(C(F)(F)C1=O)C2(C)C (stereo not given)	> 100 µM (inactive)	> 100 µM (inactive)	> 100 µM (inactive)	> 100 µM (inactive)	> 100 µM (inactive)	> 100 µM (inactive)	> 100 µM (inactive)	> 100 µM (inactive)	> 100 µM (inactive)	> 100 µM (inactive)	> 100 µM (inactive)	> 100 µM (inactive)	> 100 µM (inactive)	> 100 µM (inactive)	> 100 µM (inactive)	–	–	> 100	> 100 µM (inactive)	> 100 µM (inactive)
CCOC(=O)c1c(O)cn2c1[nH]c1cccc3cccc2c31	> 100 µM (inactive)	44.1 µM (inactive)	> 100 µM (inactive)	> 100 µM (inactive)	> 100 µM (inactive)	46.9 µM (inactive)	–	> 100 µM (inactive)	51.4 µM (inactive)	50.5 µM (inactive)	> 100 µM (inactive)	> 100 µM (inactive)	69.2 µM (inactive)	> 100 µM (inactive)	> 100 µM (inactive)	> 100 µM (inactive)	32.6 µM (inactive)	54.6	> 100 µM (inactive)	35.6 µM (inactive)
